# According to publication PMC11320734 (ACS Pharmacology & Translational Science, 2024):
# Molecular target: T1, human P-gp (Homo sapiens, UniProt P08183)
# T1 construct: expressed in transfected cells; host or cells: LLC-PK1 (porcine kidney epithelial) cells
# Test: P-gp assay in transfected LLC-PK1 cells
# Type: in vitro ADME
# Conditions: read-out: P-gp transporter ER human
# Protocol: The general permeability of the compound was assessed using the parallel artificial membrane permeability (PAMPA) assay and the permeability-glycoprotein (P-gp) assay was used to specifically test for brain penetration. PAMPA data were generated as previously reported by our group.[44] The P-gp assay, which evaluates the brain penetration of test compounds, was performed as described elsewhere.[45] Briefly, transfected porcine kidney epithelial (LLC-PK1) cells expressing human or mouse P-gp were cultured on 96-well semipermeable filter membrane plates (Millipore, Darmstadt, Germany). Cells formed a polarized monolayer with tight junctions that acted as a barrier between apical and basolateral compartments. P-gp was expressed in the apical-facing membrane of the monolayer (tightness confirmed using Lucifer yellow). […] The effect of P-gp was measured by expressing the efflux ratio of the unidirectional A > B and B > A Papp values. The mean permeability (A > B and B > A Papp) was determined in the absence of P-gp via the addition of the selective P-gp inhibitor, tariquidar.
# T1 sequence (P08183 whole entry): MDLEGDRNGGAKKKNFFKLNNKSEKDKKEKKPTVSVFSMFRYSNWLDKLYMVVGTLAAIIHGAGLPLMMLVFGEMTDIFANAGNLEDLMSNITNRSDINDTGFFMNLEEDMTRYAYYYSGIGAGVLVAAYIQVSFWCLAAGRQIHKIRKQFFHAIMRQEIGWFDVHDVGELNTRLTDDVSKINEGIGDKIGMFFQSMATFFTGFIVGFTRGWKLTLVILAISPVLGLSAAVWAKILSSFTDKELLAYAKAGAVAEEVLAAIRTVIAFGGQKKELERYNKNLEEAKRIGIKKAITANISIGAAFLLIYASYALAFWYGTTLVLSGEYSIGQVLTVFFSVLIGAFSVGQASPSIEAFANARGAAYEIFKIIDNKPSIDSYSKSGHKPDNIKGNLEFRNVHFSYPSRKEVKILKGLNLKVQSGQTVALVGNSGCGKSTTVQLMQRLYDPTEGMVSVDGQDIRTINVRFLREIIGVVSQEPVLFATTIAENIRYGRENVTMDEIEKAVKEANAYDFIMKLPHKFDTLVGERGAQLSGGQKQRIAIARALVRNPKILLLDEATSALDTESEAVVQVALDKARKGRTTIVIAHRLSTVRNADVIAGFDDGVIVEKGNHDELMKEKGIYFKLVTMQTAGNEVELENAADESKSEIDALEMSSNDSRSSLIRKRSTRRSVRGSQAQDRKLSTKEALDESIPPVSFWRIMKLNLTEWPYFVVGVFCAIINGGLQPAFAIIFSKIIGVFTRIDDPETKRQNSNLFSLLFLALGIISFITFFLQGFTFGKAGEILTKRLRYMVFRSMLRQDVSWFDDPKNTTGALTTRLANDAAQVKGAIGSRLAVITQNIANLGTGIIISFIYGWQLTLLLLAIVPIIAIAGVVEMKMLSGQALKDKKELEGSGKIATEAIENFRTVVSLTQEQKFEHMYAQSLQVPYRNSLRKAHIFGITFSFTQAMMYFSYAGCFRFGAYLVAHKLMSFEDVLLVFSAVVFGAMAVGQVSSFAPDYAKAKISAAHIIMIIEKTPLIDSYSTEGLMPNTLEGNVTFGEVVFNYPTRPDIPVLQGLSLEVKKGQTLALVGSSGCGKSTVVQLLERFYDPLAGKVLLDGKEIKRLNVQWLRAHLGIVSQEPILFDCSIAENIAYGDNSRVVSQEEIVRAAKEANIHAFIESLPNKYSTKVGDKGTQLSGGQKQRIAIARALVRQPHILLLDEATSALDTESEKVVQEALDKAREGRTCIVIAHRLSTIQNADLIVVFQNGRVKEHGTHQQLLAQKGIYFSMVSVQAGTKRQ
smiles,measurement,value
Cn1c(C(C)(C)C)cc(=NC(=O)c2cc(C(F)(F)F)ccc2OCC(C)(C)O)n1CC1CCC1 [RNB-61],efflux ratio at 3 h,40.6
